Results from patent publication US12552790B2, “Positive modulators of the muscarinic acetylcholine receptor M4” (Vanderbilt University, priority 2023, dated 2026).

Key:
Human M2 = biological target: T1, Human M2 (Homo sapiens, UniProt P08172); assay: M2 cell-based functional assay, calcium mobilization (selectivity); conditions: for Emax at 30 µM: % ACh maximum at 30 μM
T1 construct: expressed in transfected cells; host or cells: CHO-K1
T1 sequence (P08172 1-466): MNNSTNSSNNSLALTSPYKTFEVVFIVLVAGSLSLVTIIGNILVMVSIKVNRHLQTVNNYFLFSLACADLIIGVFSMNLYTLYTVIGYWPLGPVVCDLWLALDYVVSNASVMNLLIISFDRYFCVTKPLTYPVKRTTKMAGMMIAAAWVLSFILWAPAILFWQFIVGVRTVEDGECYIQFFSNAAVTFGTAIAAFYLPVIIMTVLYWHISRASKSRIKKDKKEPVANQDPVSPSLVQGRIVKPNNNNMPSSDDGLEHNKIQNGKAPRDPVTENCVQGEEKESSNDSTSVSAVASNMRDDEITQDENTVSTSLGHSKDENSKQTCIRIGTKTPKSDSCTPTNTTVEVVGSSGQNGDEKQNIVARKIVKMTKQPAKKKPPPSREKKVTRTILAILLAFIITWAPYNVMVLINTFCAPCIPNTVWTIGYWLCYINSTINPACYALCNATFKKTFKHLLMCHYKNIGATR
Experimental: (§1) The high throughput assay was employed to measure receptor-induced mobilization of intracellular calcium to determine compound activity. Test compound was added to cells expressing the muscarinic receptors that were loaded with calcium sensitive fluorescent dye. After a ˜2.5 minute incubation period, a submaximal (EC20) concentration of acetylcholine was added, and the response measured. This kinetic assay allows for simultaneous screening and potency determination of multiple pharmacological modes of action including agonist and potentiator activity. CHO-K1 cells stably expressing muscarinic receptors were plated in growth medium lacking G418 and hygromycin at 15,000 cells/20 μL/well in Greiner 384-well black-walled, tissue culture (TC)-treated, clear-bottom plates (Greiner Bio-One). Cells were incubated overnight at 37° C. and 5% CO2. The next day, calcium assay buffer (Hank's balanced salt solution (HBSS), 20 mM HEPES, 2.5 mM Probenecid, 4.16 mM sodium bicarbonate (Sigma-Aldrich, St. Louis, MO)) was prepared to dilute compounds, agonists, and Fluo-4-acetomethoxyester (Fluo-4-AM), fluorescent calcium indicator dye. Compounds were serially diluted 1:3 into 10 point concentration response curves in DMSO using the Bravo Liquid Handler (Agilent, Santa Clara, CA), transferred to a 384 well daughter plates using an Echo acoustic liquid handler (Beckman Coulter, Indianapolis, Indiana), and diluted in assay Buffer to a 2× final concentration. The agonist plates were prepared using acetylcholine (ACh, Sigma-Aldrich, St. Louis, MO) concentrations for the EC20 and ECMAX responses by diluting in assay buffer to a 5× final concentration. The 2× dye solution (2.3 μM) was prepared by mixing a 2.3 mM Fluo-4-AM stock in DMSO with 10% (w/v) pluronic acid F-127 in a 1:1 ratio in assay buffer. Using a microplate washer (BioTek, Winooski, VT), cells were washed with assay buffer for 3 times to remove medium. After the final wash, 20 μL of assay buffer remained in the cell plates. Immediately, 20 μL of the 2× dye solution (final 1.15 μM) was added to each well of the cell plate using a Multidrop Combi dispenser (Thermo Fisher, Waltham, MA). After cells were incubated with the dye solutions for 45 min at 37° C. in the presence of 5% CO2, the dye solutions were removed and replaced with assay buffer using a microplate washer, leaving 20 μL of assay buffer in the cell plate.
The prepared compound, agonist, and cell plates were placed inside the Functional Drug Screening System uCell (FDSS uCell, Hamamatsu, Japan) to measure the calcium flux. The triple add protocol was used to measure Ca kinetics; Compound, ACh for EC20, and ACh for EC80 adds in an order. Briefly, after establishment of a fluorescence baseline for 2 seconds (excitation, 480 nm; emission, 530 nm), first add occurred by adding 20 μL of test compound to the cells, and the response was measured for 140 seconds. This is followed by second add; 10 μL (5×) of an EC20 concentration of ACh agonist was added to the cells, and the response of the cells was measured for 125 seconds. Immediately, the third add occurred by adding […] (5×) of an EC80 concentration of ACh and the response of the cells was measured for 90 seconds. Acetylcholine-mediated maximum response (ECmax) was measured by adding 1 mM ACh as third add in the control wells. DMSO vehicle was added to the control wells in the first add for assessing ACh EC20, EC80, and ECmax responses. Calcium fluorescence was recorded as fold over basal fluorescence and raw data were normalized to the maximal response to ACh agonist. Agonist activity was analyzed as a concentration-dependent increase in calcium mobilization upon compound addition. Positive allosteric modulator activity was analyzed as a concentration-dependent increase in the EC20 acetylcholine response. Antagonist activity was analyzed as a concentration-dependent decrease in the EC80 acetylcholine response. […]

Human M4 = biological target: T2, Human M4 (Homo sapiens, UniProt P08173); assay: M4 cell-based functional assay, calcium mobilization, potentiation of ACh EC20; conditions: for Emax at 30 µM: % ACh maximum at 30 μM; for EC50: CHO-K1 hM4-Gqi5 cells, calcium flux, ACh EC20
T2 construct: expressed in transfected cells
T2 sequence (P08173 1-479): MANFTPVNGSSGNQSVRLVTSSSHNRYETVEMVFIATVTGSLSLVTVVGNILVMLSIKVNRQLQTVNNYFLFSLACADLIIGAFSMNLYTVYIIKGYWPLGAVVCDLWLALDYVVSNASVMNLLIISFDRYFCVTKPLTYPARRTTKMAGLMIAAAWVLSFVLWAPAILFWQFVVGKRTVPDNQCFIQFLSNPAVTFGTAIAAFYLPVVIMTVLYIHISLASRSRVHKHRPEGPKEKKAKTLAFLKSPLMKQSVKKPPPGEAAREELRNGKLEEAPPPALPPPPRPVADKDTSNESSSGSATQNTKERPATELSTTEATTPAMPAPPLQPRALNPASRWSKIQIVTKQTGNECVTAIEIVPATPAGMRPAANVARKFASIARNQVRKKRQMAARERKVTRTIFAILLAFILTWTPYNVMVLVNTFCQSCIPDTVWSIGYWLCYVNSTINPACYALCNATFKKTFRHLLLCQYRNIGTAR
Experimental: Human and rat M4 cDNAs, along with the chimeric G protein Gqi5, were transfected into Chinese hamster ovary (CHO-K1) cells purchased from the American Type Culture Collection using Lipofectamine2000. The transfected cells were subjected to selection antbiotic treatment to generate stable cell lines; G418 sulfate (1 mg/ml) for selecting M4 expressing cells and Hygromycin B (500 μg/mL) for selecting Gqi5 expressing cells. The resulting polyclones were further screened to obtain monoclones of hM4-Gqi5 and rM4-Gqi5 for compound screening assay. Stable monoclone cells were maintained in Ham's F-12 medium containing 10% heat-inactivated fetal bovine serum (FBS), 1× Antibiotic/Antimycotic, 20 mM HEPES, 500 μg/mL G418 sulfate, and 200 μg/mL Hygromycin B in 37° C. humidified incubators in the presence of 5% CO2.
as §1
The prepared compound, agonist, and cell plates were placed inside the Functional Drug Screening System uCell (FDSS uCell, Hamamatsu, Japan) to measure the calcium flux. The triple add protocol was used to measure Ca kinetics; Compound, ACh for EC20, and ACh for EC80 adds in an order. Briefly, after establishment of a fluorescence baseline for 2 seconds (excitation, 480 nm; emission, 530 nm), first add occurred by adding 20 μL of test compound to the cells, and the response was measured for 140 seconds. This is followed by second add; 10 μL (5×) of an EC20 concentration of ACh agonist was added to the cells, and the response of the cells was measured for 125 seconds. […]

[1] = test system: amphetamine-induced hyperlocomotion in male Sprague-Dawley rats; assay: Amphetamine-induced hyperlocomotion in rats; assay type: in vivo; conditions: 10 mg/kg oral gavage, rat, amphetamine 0.75 mg/kg s.c.
Experimental: Drugs: d-Amphetamine hemisulfate was obtained from Sigma (St. Louis, MO). Salt-correction was used to determine the correct amount of the d-amphetamine hemisulfate form in milligrams to add to sterile water in order to yield a 0.75 mg/mL solution, which would be dosed at 1 mL/kg body weight of each animal. […] The solutions were formulated so that animals were injected with a volume equal to 10 mL/kg body weight for all compounds. The appropriate amount according to the dosage was mixed in 10% Tween 80 (Sigma) in sterile water. The mixtures were then vortexed and stored in a 39° C. sonication bath for 1 hour, until in a solution or microsuspension (depending on dose).
Animals: Male Sprague-Dawley rats weighing 239-300 grams and averaging 265 g (Harlan, Inc., Indianapolis, IN) were used. They were housed in the animal care facility certified by the American Association for the Accreditation of Laboratory Animal Care (AALAC) under a 12-hour light/dark cycle (lights on: 6 a.m.; lights off: 6 p.m.) and had free access to food and water. The animals used in this experiment were food-deprived the evening before experimentation for oral dosing of compound/vehicle. The experimental protocols performed during the light cycle were approved by the Institutional Animals Care and Use Committee of Vanderbilt University and conformed to the guidelines established by the National Research Council Guide for the Care and Use of Laboratory Animals.
Amphetamine-induced Hyperlocomotion: Male Harlan Sprague Dawley rats were habituated in Smart Open Field locomotor activity test chambers (Hamilton-Kinder, San Diego, CA) with 16×16 photo beams to automatically record locomotor activity. […] They were monitored for an additional 30 minutes and then injected subcutaneously with vehicle or 0.75 mg/kg amphetamine. Animals were then monitored for an additional 60 minutes, for a total of 120 minutes. Data were expressed as changes in ambulation defined as total number of beam breaks per 5 minute interval. Terminal brain and plasma samples were collected at the end of the study for pharmacokinetic analysis.
Data Analysis: Behavioral data were analyzed using a two-way ANOVA with main effects of treatment and time. Post hoc analysis was performed using a Dunnett's t-test with all treatment groups compared to the Vehicle/amphetamine group (VAMP) group using GraphPad Prism V.5.04 (GraphPad Software, San Diego, CA). Data were graphed using GraphPad Prism V.5.04 (GraphPad Software, San Diego, CA). A probability of p≤0.05 was taken as the level of statistical significance. In addition, the total number of beam breaks from the amphetamine administration (65 min) to the end of the study (120 min) was calculated and graphed. Percent Reversal was calculated as follows using Microsoft Excel: In each animal, total ambulation from t=65 to t=120 was summed. The mean of each sum was calculated in the VAMP group. Then, for each animal, Percent Reversal was calculated with the following formula: Percent Reversal=100−{[(total ambulation in each animal from t=65 to t=120)/(mean of each sum from t=65 to t=120 in VAMP group)]*100}. The mean Percent Reversal, as well as the standard error, was calculated for each dose group using GraphPad Prism V5.04.

[2] = M2 cell-based functional assay, calcium flux

Compound	Emax at 30 µM (Human M2) [%]	EC50 (Human M2; [2]) [nM]	Emax at 30 µM (Human M4) [%]	EC50 (Human M4) [nM]	Human M2 EC50 (Human M2; [2])	percent reversal of amphetamine-induced hyperlocomotion [1] [%]
[2H]C1([2H])Oc2ccc(OC3CCN(c4nc5nn(C)c(=O)n5c5c4CCC5)CC3)cc2OC1([2H])[2H] [Compound A14, 5-(4-((2,3-dihydrobenzo[b][1,4]dioxin-6-yl-2,2,3,3-d4)oxy)piperidin-1-yl)-2-methyl-2,6,7,8-tetrahydro-1H-cyclopenta[e][1,2,4]triazolo[4,3-a]pyrimidin-1-one]	60	2230	84	3		
[2H]C1([2H])Oc2ccc(OC3CCN(c4nc5nn(C)c(=O)n5c5c4CCCC5)CC3)cc2OC1([2H])[2H] [Compound A15, 5-(4-((2,3-dihydrobenzo[b][1,4]dioxin-6-yl-2,2,3,3-d4)oxy)piperidin-1-yl)-2-methyl-6,7,8,9-tetrahydro-[1,2,4]triazolo[4,3-a]quinazolin-1(2H)-one]	45	5920	83	53		
[2H]C1([2H])Oc2ccc(OC3CCN(c4nc5n[nH]c(=O)n5c5c4CCC5)CC3)cc2OC1([2H])[2H] [Compound A16, 5-(4-((2,3-dihydrobenzo[b][1,4]dioxin-6-yl-2,2,3,3-d4)oxy)piperidin-1-yl)-2,6,7,8-tetrahydro-1H-cyclopenta[e][1,2,4]triazolo[4,3-a]pyrimidin-1-one]	48	2860	84	4		
Cc1nnc2sc(C(=O)NCc3ccc(S(=O)(=O)C(F)(F)F)cc3)c(N)c2c1C [VU0467154, reference compound]						56.2

The next lines start with results.

Emax at 30 µM (Human M2) [%]	EC50 (Human M2; [2]) [nM]	Emax at 30 µM (Human M4) [%]	EC50 (Human M4) [nM]	Human M2 EC50 (Human M2; [2])	Compound	percent reversal of amphetamine-induced hyperlocomotion [1] [%]
		87	64	Inactive	[2H]C1([2H])Oc2ccc(OC3CCN(c4nc5n[nH]c(=O)n5c5c4CCCC5)CC3)cc2OC1([2H])[2H] [Compound A17, 5-(4-((2,3-dihydrobenzo[b][1,4]dioxin-6-yl-2,2,3,3-d4)oxy)piperidin-1-yl)-6,7,8,9-tetrahydro-[1,2,4]triazolo[4,3-a]quinazolin-1(2H)-one]	
53	1110	98	3		[2H]C([2H])([2H])n1nc2nc(N3CCC(Oc4ccc5c(c4)OC([2H])([2H])C([2H])([2H])O5)CC3)c(C)c(C)n2c1=O [Compound A18, 7-(4-((2,3-dihydrobenzo[b][1,4]dioxin-6-yl-2,2,3,3-d4)oxy)piperidin-1-yl)-5,6-dimethyl-2-(methyl-d3)-[1,2,4]triazolo[4,3-a]pyrimidin-3(2H)-one]	
